Numbers after ± are expanded uncertainties.
How the values were obtained:
[1] = excess molar enthalpy (molar enthalpy of mixing); xn = mol fraction of the nth substance listed; conditions: 101.3 kPa, Liquid, Calvet calorimetry
[2] = xn = mol fraction of the nth substance listed; conditions: 101.3 kPa, Liquid

CCCC(=O)OCC [ethyl butanoate] + CC(C)(C)O
Conditions	excess molar enthalpy [kcal/mol]	excess molar volume [m3/mol]
[1], 299.15 K, x1 = 0.0438	0.0602 ± 0.00263	–
[1], 299.15 K, x1 = 0.0937	0.123 ± 0.00287	–
[1], 299.15 K, x1 = 0.1461	0.186 ± 0.00335	–
[1], 299.15 K, x1 = 0.1991	0.249 ± 0.00382	–
[1], 299.15 K, x1 = 0.2541	0.296 ± 0.00406	–
[1], 299.15 K, x1 = 0.3061	0.337 ± 0.00454	–
[1], 299.15 K, x1 = 0.3568	0.37 ± 0.00478	–
[1], 299.15 K, x1 = 0.4053	0.393 ± 0.00502	–
[1], 299.15 K, x1 = 0.4331	0.405 ± 0.00502	–
[1], 299.15 K, x1 = 0.4818	0.416 ± 0.00526	–
[1], 299.15 K, x1 = 0.5387	0.419 ± 0.00526	–
[1], 299.15 K, x1 = 0.6024	0.409 ± 0.00502	–
[1], 299.15 K, x1 = 0.6746	0.381 ± 0.00478	–
[1], 299.15 K, x1 = 0.7522	0.331 ± 0.00454	–
[1], 299.15 K, x1 = 0.833	0.251 ± 0.00382	–
[1], 299.15 K, x1 = 0.9172	0.143 ± 0.00311	–
[1], 318.15 K, x1 = 0.0394	0.0701 ± 0.00263	–
[1], 318.15 K, x1 = 0.0951	0.138 ± 0.00287	–
[1], 318.15 K, x1 = 0.158	0.203 ± 0.00335	–
[1], 318.15 K, x1 = 0.2201	0.26 ± 0.00382	–
[1], 318.15 K, x1 = 0.2807	0.313 ± 0.0043	–
[1], 318.15 K, x1 = 0.3377	0.349 ± 0.00454	–
[1], 318.15 K, x1 = 0.385	0.376 ± 0.00478	–
[1], 318.15 K, x1 = 0.4267	0.392 ± 0.00502	–
[1], 318.15 K, x1 = 0.4576	0.404 ± 0.00502	–
[1], 318.15 K, x1 = 0.4628	0.405 ± 0.00502	–
[1], 318.15 K, x1 = 0.4938	0.412 ± 0.00526	–
[1], 318.15 K, x1 = 0.5386	0.415 ± 0.00526	–
[1], 318.15 K, x1 = 0.5934	0.41 ± 0.00526	–
[1], 318.15 K, x1 = 0.6595	0.387 ± 0.00502	–
[1], 318.15 K, x1 = 0.7407	0.336 ± 0.00454	–
[1], 318.15 K, x1 = 0.8336	0.249 ± 0.00382	–
[1], 318.15 K, x1 = 0.9223	0.136 ± 0.00311	–
[2], 303.15 K, x1 = 0.0445	–	9.2e-07 ± 6e-08
[2], 303.15 K, x1 = 0.0966	–	2.08e-06 ± 7e-08
[2], 303.15 K, x1 = 0.1518	–	3.11e-06 ± 7e-08
[2], 303.15 K, x1 = 0.1999	–	3.83e-06 ± 7e-08
[2], 303.15 K, x1 = 0.2466	–	4.41e-06 ± 8e-08
[2], 303.15 K, x1 = 0.3111	–	5.13e-06 ± 8e-08
[2], 303.15 K, x1 = 0.3504	–	5.6e-06 ± 8e-08
[2], 303.15 K, x1 = 0.4043	–	5.91e-06 ± 9e-08
[2], 303.15 K, x1 = 0.4468	–	6.09e-06 ± 9e-08
[2], 303.15 K, x1 = 0.4837	–	6.11e-06 ± 9e-08
[2], 303.15 K, x1 = 0.5015	–	6.11e-06 ± 9e-08
[2], 303.15 K, x1 = 0.5259	–	6.07e-06 ± 9e-08
[2], 303.15 K, x1 = 0.5538	–	5.99e-06 ± 9e-08
[2], 303.15 K, x1 = 0.6004	–	5.74e-06 ± 9e-08
[2], 303.15 K, x1 = 0.6399	–	5.5e-06 ± 8e-08
[2], 303.15 K, x1 = 0.663	–	5.23e-06 ± 8e-08
[2], 303.15 K, x1 = 0.7129	–	4.83e-06 ± 8e-08
[2], 303.15 K, x1 = 0.7538	–	4.33e-06 ± 8e-08
[2], 303.15 K, x1 = 0.7934	–	3.77e-06 ± 7e-08
[2], 303.15 K, x1 = 0.8465	–	2.99e-06 ± 7e-08
[2], 303.15 K, x1 = 0.9017	–	2e-06 ± 6e-08
[2], 303.15 K, x1 = 0.9614	–	8.2e-07 ± 6e-08
[2], 318.15 K, x1 = 0.0604	–	1.83e-06 ± 6e-08
[2], 318.15 K, x1 = 0.1099	–	2.85e-06 ± 7e-08
[2], 318.15 K, x1 = 0.1559	–	3.63e-06 ± 7e-08
[2], 318.15 K, x1 = 0.2141	–	4.45e-06 ± 8e-08
[2], 318.15 K, x1 = 0.265	–	5.17e-06 ± 8e-08
[2], 318.15 K, x1 = 0.2982	–	5.41e-06 ± 8e-08
[2], 318.15 K, x1 = 0.3386	–	5.74e-06 ± 9e-08
[2], 318.15 K, x1 = 0.39	–	6.14e-06 ± 9e-08
[2], 318.15 K, x1 = 0.4477	–	6.44e-06 ± 9e-08
[2], 318.15 K, x1 = 0.4595	–	6.5e-06 ± 9e-08
[2], 318.15 K, x1 = 0.4778	–	6.53e-06 ± 9e-08
[2], 318.15 K, x1 = 0.4982	–	6.55e-06 ± 9e-08
[2], 318.15 K, x1 = 0.4996	–	6.56e-06 ± 9e-08
[2], 318.15 K, x1 = 0.5163	–	6.56e-06 ± 9e-08
[2], 318.15 K, x1 = 0.5222	–	6.55e-06 ± 9e-08
[2], 318.15 K, x1 = 0.5936	–	6.38e-06 ± 9e-08
[2], 318.15 K, x1 = 0.6597	–	6.03e-06 ± 9e-08
[2], 318.15 K, x1 = 0.7011	–	5.73e-06 ± 9e-08
[2], 318.15 K, x1 = 0.745	–	5.15e-06 ± 8e-08
[2], 318.15 K, x1 = 0.7968	–	4.5e-06 ± 8e-08
[2], 318.15 K, x1 = 0.8396	–	3.81e-06 ± 8e-08
[2], 318.15 K, x1 = 0.8701	–	3.15e-06 ± 7e-08
[2], 318.15 K, x1 = 0.9283	–	2.01e-06 ± 6e-08

CC(C)(C)O [2-methylpropan-2-ol] + CCOC(C)=O
Conditions	excess molar enthalpy [kcal/mol]	excess molar volume [m3/mol]
[1], 299.15 K, x2 = 0.0546	0.0899 ± 0.00311	–
[1], 299.15 K, x2 = 0.1163	0.178 ± 0.00359	–
[1], 299.15 K, x2 = 0.181	0.263 ± 0.00406	–
[1], 299.15 K, x2 = 0.2456	0.332 ± 0.00454	–
[1], 299.15 K, x2 = 0.3079	0.385 ± 0.00502	–
[1], 299.15 K, x2 = 0.3672	0.422 ± 0.00526	–
[1], 299.15 K, x2 = 0.4207	0.445 ± 0.0055	–
[1], 299.15 K, x2 = 0.4707	0.459 ± 0.00574	–
[1], 299.15 K, x2 = 0.5157	0.464 ± 0.00574	–
[1], 299.15 K, x2 = 0.5541	0.462 ± 0.00574	–
[1], 299.15 K, x2 = 0.564	0.46 ± 0.00574	–
[1], 299.15 K, x2 = 0.6199	0.444 ± 0.0055	–
[1], 299.15 K, x2 = 0.68	0.413 ± 0.00526	–
[1], 299.15 K, x2 = 0.7438	0.365 ± 0.00502	–
[1], 299.15 K, x2 = 0.8091	0.299 ± 0.0043	–
[1], 299.15 K, x2 = 0.8769	0.212 ± 0.00382	–
[1], 299.15 K, x2 = 0.9385	0.117 ± 0.00335	–
[1], 318.15 K, x2 = 0.0538	0.0799 ± 0.00311	–
[1], 318.15 K, x2 = 0.1146	0.164 ± 0.00335	–
[1], 318.15 K, x2 = 0.1733	0.24 ± 0.00382	–
[1], 318.15 K, x2 = 0.2313	0.307 ± 0.0043	–
[1], 318.15 K, x2 = 0.2953	0.361 ± 0.00478	–
[1], 318.15 K, x2 = 0.3487	0.396 ± 0.00502	–
[1], 318.15 K, x2 = 0.3987	0.422 ± 0.00526	–
[1], 318.15 K, x2 = 0.4461	0.438 ± 0.0055	–
[1], 318.15 K, x2 = 0.4878	0.445 ± 0.0055	–
[1], 318.15 K, x2 = 0.5176	0.448 ± 0.0055	–
[1], 318.15 K, x2 = 0.5676	0.444 ± 0.0055	–
[1], 318.15 K, x2 = 0.6236	0.429 ± 0.0055	–
[1], 318.15 K, x2 = 0.6844	0.398 ± 0.00502	–
[1], 318.15 K, x2 = 0.7436	0.352 ± 0.00478	–
[1], 318.15 K, x2 = 0.8108	0.285 ± 0.0043	–
[1], 318.15 K, x2 = 0.8797	0.198 ± 0.00359	–
[1], 318.15 K, x2 = 0.9442	0.104 ± 0.00311	–
[2], 303.15 K, x2 = 0.0458	–	1.14e-06 ± 7e-08
[2], 303.15 K, x2 = 0.0972	–	2.65e-06 ± 8e-08
[2], 303.15 K, x2 = 0.1702	–	4.43e-06 ± 9e-08
[2], 303.15 K, x2 = 0.1982	–	4.99e-06 ± 8e-08
[2], 303.15 K, x2 = 0.2483	–	5.78e-06 ± 9e-08
[2], 303.15 K, x2 = 0.2718	–	6.12e-06 ± 9e-08
[2], 303.15 K, x2 = 0.3074	–	6.6e-06 ± 9e-08
[2], 303.15 K, x2 = 0.3613	–	7.08e-06 ± 1e-07
[2], 303.15 K, x2 = 0.3973	–	7.3e-06 ± 1e-07
[2], 303.15 K, x2 = 0.4626	–	7.52e-06 ± 1e-07
[2], 303.15 K, x2 = 0.5178	–	7.55e-06 ± 1e-07
[2], 303.15 K, x2 = 0.5274	–	7.54e-06 ± 1e-07
[2], 303.15 K, x2 = 0.5449	–	7.51e-06 ± 1e-07
[2], 303.15 K, x2 = 0.5624	–	7.48e-06 ± 1e-07
[2], 303.15 K, x2 = 0.5722	–	7.42e-06 ± 1e-07
[2], 303.15 K, x2 = 0.5885	–	7.35e-06 ± 1e-07
[2], 303.15 K, x2 = 0.5998	–	7.3e-06 ± 1e-07
[2], 303.15 K, x2 = 0.6022	–	7.27e-06 ± 1e-07
[2], 303.15 K, x2 = 0.6086	–	7.2e-06 ± 1e-07
[2], 303.15 K, x2 = 0.6124	–	7.17e-06 ± 1e-07
[2], 303.15 K, x2 = 0.6336	–	7.06e-06 ± 1e-07
[2], 303.15 K, x2 = 0.6501	–	6.87e-06 ± 1e-07
[2], 303.15 K, x2 = 0.7084	–	6.24e-06 ± 9e-08
[2], 303.15 K, x2 = 0.7732	–	5.29e-06 ± 9e-08
[2], 303.15 K, x2 = 0.8111	–	4.6e-06 ± 8e-08
[2], 303.15 K, x2 = 0.8533	–	3.72e-06 ± 8e-08
[2], 303.15 K, x2 = 0.8915	–	2.84e-06 ± 8e-08
[2], 303.15 K, x2 = 0.9686	–	8.6e-07 ± 7e-08
[2], 318.15 K, x2 = 0.0796	–	2.37e-06 ± 7e-08
[2], 318.15 K, x2 = 0.1377	–	3.7e-06 ± 8e-08
[2], 318.15 K, x2 = 0.1899	–	4.83e-06 ± 9e-08
[2], 318.15 K, x2 = 0.2558	–	6.14e-06 ± 1e-07
[2], 318.15 K, x2 = 0.2985	–	6.84e-06 ± 1e-07
[2], 318.15 K, x2 = 0.3703	–	7.44e-06 ± 1e-07
[2], 318.15 K, x2 = 0.4344	–	7.86e-06 ± 1e-07
[2], 318.15 K, x2 = 0.4633	–	7.93e-06 ± 1e-07
[2], 318.15 K, x2 = 0.5377	–	7.95e-06 ± 1.1e-07
[2], 318.15 K, x2 = 0.5626	–	7.87e-06 ± 1e-07
[2], 318.15 K, x2 = 0.6284	–	7.55e-06 ± 1e-07
[2], 318.15 K, x2 = 0.6913	–	7e-06 ± 1e-07
[2], 318.15 K, x2 = 0.767	–	5.96e-06 ± 9e-08
[2], 318.15 K, x2 = 0.8516	–	4.18e-06 ± 8e-08
[2], 318.15 K, x2 = 0.8891	–	3.61e-06 ± 8e-08
[2], 318.15 K, x2 = 0.9294	–	2.37e-06 ± 8e-08

Source: the NIST ThermoML archive (doi:10.1021/je0202073)
